# Results reported in patent USRE49825E1, “Piperidinyl nociceptin receptor compounds” (Astraea Therapeutics, LLC, priority 2015, dated 2024).
# Like-named read-outs stand apart in the source and are kept apart here.
# Key:
# kappa opioid receptor = kappa opioid receptor (Homo sapiens, UniProt P41145); experiment: Radioligand binding assay, [3H]U69593, membranes of CHO cells transfected with human kappa opioid receptor; conditions: CHO cell membranes, read-out: Receptor Binding Ki (nM) κ
# mu opioid receptor = mu opioid receptor (Homo sapiens, UniProt P35372); experiment: Radioligand binding assay, [3H]DAMGO, membranes of CHO cells transfected with human mu opioid receptor; conditions: CHO cell membranes, read-out: Receptor Binding Ki (nM) μ
# Sequence of mu opioid receptor (P35372 whole entry): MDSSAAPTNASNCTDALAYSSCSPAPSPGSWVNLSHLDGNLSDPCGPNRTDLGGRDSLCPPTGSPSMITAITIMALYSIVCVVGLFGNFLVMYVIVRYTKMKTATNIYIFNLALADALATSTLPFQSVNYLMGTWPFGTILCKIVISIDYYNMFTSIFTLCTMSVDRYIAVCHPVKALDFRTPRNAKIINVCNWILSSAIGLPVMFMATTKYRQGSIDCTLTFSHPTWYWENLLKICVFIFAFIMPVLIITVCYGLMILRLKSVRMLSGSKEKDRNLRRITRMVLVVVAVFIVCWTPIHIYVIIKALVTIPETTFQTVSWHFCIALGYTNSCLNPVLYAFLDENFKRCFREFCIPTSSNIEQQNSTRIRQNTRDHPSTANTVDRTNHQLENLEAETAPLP
# Sequence of kappa opioid receptor (P41145 whole entry): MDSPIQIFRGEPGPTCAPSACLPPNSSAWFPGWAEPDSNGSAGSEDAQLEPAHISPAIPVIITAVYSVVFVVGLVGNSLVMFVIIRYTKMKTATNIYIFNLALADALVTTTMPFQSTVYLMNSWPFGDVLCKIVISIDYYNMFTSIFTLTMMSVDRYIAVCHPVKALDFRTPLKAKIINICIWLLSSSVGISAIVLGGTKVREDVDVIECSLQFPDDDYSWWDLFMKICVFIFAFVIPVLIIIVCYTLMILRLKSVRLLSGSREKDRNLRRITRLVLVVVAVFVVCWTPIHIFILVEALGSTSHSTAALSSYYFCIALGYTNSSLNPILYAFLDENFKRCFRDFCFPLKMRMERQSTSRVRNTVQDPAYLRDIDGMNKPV
smiles,measurement,setting,value
"CC(C)[C@H]1CC[C@@H](N2CCC(n3cc(CN4CC[C@@H](O)C4)c4ccccc43)CC2)CC1 [Compound 66, (R)-1-((1-(1-(cis-4-isopropylcyclohexyl)piperidin-4-yl)-1H-indol-3-yl)methyl)pyrrolin-3-ol]",Ki,kappa opioid receptor; Compounds of Formula (II),> 5000 nM
same,Ki,mu opioid receptor; Compounds of Formula (II),150 to 5000 nM
"CC(C)[C@H]1CC[C@@H](N2CCC(n3cc(CN4CCC(N)CC4)c4ccccc43)CC2)CC1 [Compound 69, 1-((1-(1-(cis-4-isopropylcyclohexyl)piperidin-4-yl)-1H-indol-3-yl)methyl)piperidin-4-amine]",Ki,kappa opioid receptor; Compounds of Formula (II),150 to 5000 nM
same,Ki,mu opioid receptor; Compounds of Formula (II),150 to 5000 nM
CCNCC(=O)NCc1cn(C2CCN([C@H]3CC[C@@H](C(C)C)CC3)CC2)c2ccccc12 [Compound 76],Ki,kappa opioid receptor; Compounds of Formula (II),150 to 5000 nM
same,Ki,mu opioid receptor; Compounds of Formula (II),150 to 5000 nM
CCOC(=O)NCCc1cn(C2CCN([C@H]3CC[C@@H](C(C)C)CC3)CC2)c2ccccc12 [Compound 94],Ki,kappa opioid receptor; Compounds of Formula (II),> 5000 nM
same,Ki,mu opioid receptor; Compounds of Formula (II),150 to 5000 nM
"CC(C)[C@H]1CC[C@@H](N2CCC(n3ccc4ccccc43)CC2)CC1 [Compound 61, syn-1-(1-(4-isopropylcyclohexyl)piperidin-4-yl)-1H-indole]",Ki,kappa opioid receptor; Compounds of Formula (II),150 to 5000 nM
same,Ki,mu opioid receptor; Compounds of Formula (II),150 to 5000 nM
CC(C)[C@H]1CC[C@@H](N2CCC(n3cc(CN4CCC(O)CC4)c4ccccc43)CC2)CC1 [Compound 68],Ki,kappa opioid receptor; Compounds of Formula (II),150 to 5000 nM
same,Ki,mu opioid receptor; Compounds of Formula (II),> 5000 nM
"CC(C)[C@H]1CC[C@@H](N2CCC(n3cc(CCN)c4ccccc43)CC2)CC1 [Compound 86, 2-(1-(1-(cis-4-isopropylcyclohexyl)piperidin-4-yl)-1H-indol-3-yl)ethan-1-amine]",Ki,kappa opioid receptor; Compounds of Formula (II),150 to 5000 nM
same,Ki,mu opioid receptor; Compounds of Formula (II),150 to 5000 nM
"CC(C)[C@H]1CC[C@@H](N2CCC(n3cc(CN4CC(O)C4)c4ccccc43)CC2)CC1 [Compound 67, 1-((1-(1-(cis-4-isopropylcyclohexyl)piperidin-4-yl)-1H-indol-3-yl)methyl)azetidin-3-ol]",Ki,kappa opioid receptor; Compounds of Formula (II),> 5000 nM
same,Ki,mu opioid receptor; Compounds of Formula (II),> 5000 nM
CC(C)[C@H]1CC[C@@H](N2CCC(n3cc(CNCCO)c4ccccc43)CC2)CC1 [Compound 70],Ki,kappa opioid receptor; Compounds of Formula (II),150 to 5000 nM
same,Ki,mu opioid receptor; Compounds of Formula (II),150 to 5000 nM
"CC(C)[C@H]1CC[C@@H](N2CCC3(CC2)C(=O)N(CC(N)=O)Cc2cc(-c4ccccc4)ccc23)CC1 [Compound 345, 2-(1′-(cis-4-isopropyl-cyclohexyl)-3-oxo-7-phenyl-1H-spiro [isoquinoline-4,4′-piperidin]-2(3H)-yl) acetamide]",Ki,kappa opioid receptor; Compounds of Formula (IV),150 to 5000 nM
same,Ki,mu opioid receptor; Compounds of Formula (IV),150 to 5000 nM
CC(C)[C@H]1CC[C@@H](N2CCC(n3cc(CCCNC(N)=S)c4ccccc43)CC2)CC1 [Compound 96],Ki,kappa opioid receptor; Compounds of Formula (II),150 to 5000 nM
same,Ki,mu opioid receptor; Compounds of Formula (II),150 to 5000 nM
CC(C)[C@H]1CC[C@@H](N2CCC(n3cc(CNC(=O)C(N)CCCNC(=N)N)c4ccccc43)CC2)CC1 (stereo partly shown) [Compound 80],Ki,kappa opioid receptor; Compounds of Formula (II),150 to 5000 nM
same,Ki,mu opioid receptor; Compounds of Formula (II),150 to 5000 nM
CC(C)[C@H]1CC[C@@H](N2CCC(n3cc(CN(C)C)c4ccccc43)CC2)CC1 [Compound 84],Ki,mu opioid receptor; Compounds of Formula (II),150 to 5000 nM
